Assay results: US6177469A, “Lipid alcohols as new immunosuppressive and antiviral drugs” (priority 1995, dated 2001)
Where two headings read alike, the source gives them in different places.

How the values were obtained:
[1] = cytotoxicity in CEM-SS cells by uptake of TdR-^3H into total DNA; assay type: cell-based; conditions: human, TdR-^3H uptake into total DNA, read-out: IC50 cytotoxicity
Experimental: (§1) The cell cytotoxicity and the anti-HIV-1-activity in CEM-SS cells of selected lipid alcohols are stated in table 1.
(§2) The cytotoxicity was determined by uptake of TdR-^3 H into the total DNA at various concentrations of the stated compounds. The anti-HIV 1 activity was determined using a standard plaque assay of a CEM-SS cell monolayer. The differential selectivity results from the quotient of the IC50 and anti-HIV 1 activity concentrations. ND means not determined.

[2] = tested on: HIV-1; test: anti-HIV-1 activity, standard plaque assay of a CEM-SS cell monolayer; assay type: cell-based; conditions: for IC50: read-out: IC50 anti-HIV-1; for Diff. selectivity: quotient of cytotoxicity IC50 and anti-HIV 1 IC50
Experimental: as §1, §2

[3] = Human immunodeficiency virus 1, CEM-SS cell monolayer, plaque assay

Row | Structure (SMILES) | CC50 [1] [µM] | IC50 [2, 3] [µM] | Diff. selectivity [2] | IC50 ([2]; Human immunodeficiency virus 1, CEM-SS) [µM]
1 | CCCCCCCCCCCC[S+]([O-])CC(CO)OCCCCCCCCCC (stereo not shown) [3-dodecylsulfinyl-2-decyloxy-1-propanol] | 36.8 | 0.18 | 204.22 | 
2 | CCCCCCCCCCCCOC(CO)CSCCCCCCCCCCCC (stereo not shown) [3-dodecylmercapto-2-dodecyloxy-1-propanol] | > 100 | > 20 |  | 
3 | CCCCCCCCCCOC(CO)CSCC(C)CCCCCCCCC (stereo not shown) [3-(2-methyl-undecyl)mercapto-2-decyloxy-1-propanol] | > 100 |  | > 1.95 | 51.2
4 | CCCCCCCCCCCCS(=O)(=O)CC(CO)OCCCCCCCCCC (stereo not shown) [3-dodecylsulfonyl-2-decyloxy-1-propanol] | 32.7 | 0.54 | 60.52 | 
5 | CCCCCCCCCCCOC(CO)CSCCCCCCCCCCC (stereo not shown) [3-undecylmercapto-2-undecyloxy-1-propanol] | > 100 | 2.95 | > 33.90 | 
6 | CCCCCCCCCCCCCCSCC(CO)OCCCCCCCCCC (stereo not shown) [3-tetradecylmercapto-2-decyloxy-1-propanol] | > 100 | > 20 |  | 
7 | CCCCCCCCCCCCSCC(CO)OCCCCCCCC (stereo not shown) [3-dodecylmercapto-2-octyloxy-1-propanol] | > 90.6 | 7.01 | > 12.92 | 
